Test results reported in ChEMBL document CHEMBL5634109, “Synthesis and mechanism of action of new purine derivatives against triple negative breast cancer” (Eur J Med Chem, 2023).
pIC50: −log10 of the molar value. The source made the active and inactive calls. The calls are words filed in the database; no cut-off is given here.

Legend:
[1] = Antiproliferative activity against human HUVEC cells assessed as reduction in cell viability measured for 48 hrs by MTT assay; type: toxicity, cell-based
K562 = test: Antiproliferative activity against human K562 cells assessed as reduction in cell viability measured for 48 hrs by MTT assay; type: functional, cell-based; details: K562, 48 h
MDA-MB-468 = test: Antiproliferative activity against human MDA-MB-468 cells assessed as reduction in cell viability measured for 48 hrs by MTT assay; type: functional, cell-based; details: MDA-MB-468, 48 h
HCT-116 = test: Antiproliferative activity against human HCT-116 cells assessed as reduction in cell viability measured for 48 hrs by MTT assay; type: functional, cell-based; details: HCT-116, 48 h
HT-29 = test: Antiproliferative activity against human HT-29 cells assessed as reduction in cell viability measured for 48 hrs by MTT assay; type: functional, cell-based; details: HT-29, 48 h
A549 = test: Antiproliferative activity against human A549 cells assessed as reduction in cell viability measured for 48 hrs by MTT assay; type: functional, cell-based; details: A549, 48 h
MCF7 = test: Antiproliferative activity against human MCF7 cells assessed as reduction in cell viability measured for 48 hrs by MTT assay; type: functional, cell-based; details: MCF7, 48 h
MDA-MB-231 [2] = test: Antiproliferative activity against human MDA-MB-231 cells assessed as reduction in cell viability measured for 48 hrs by MTT assay; type: functional, cell-based; details: MDA-MB-231, 48 h
MGC-803 = test: Antiproliferative activity against human MGC-803 cells assessed as reduction in cell viability measured for 48 hrs by MTT assay; type: functional, cell-based; details: MGC-803, 48 h
NCI-H1299 = test: Antiproliferative activity against human NCI-H1299 cells assessed as reduction in cell viability measured for 48 hrs by MTT assay; type: functional, cell-based; details: NCI-H1299, 48 h
[3] = Antiproliferative activity against human HEK293 cells assessed as reduction in cell viability measured for 48 hrs by MTT assay; type: toxicity, cell-based
HepG2 = test: Antiproliferative activity against human HepG2 cells assessed as reduction in cell viability measured for 48 hrs by MTT assay; type: functional, cell-based; details: HepG2, 48 h
PC-3 = test: Antiproliferative activity against human PC-3 cells assessed as reduction in cell viability measured for 48 hrs by MTT assay; type: functional, cell-based; details: PC-3, 48 h
[4] = target: Casein kinase I isoform epsilon (Homo sapiens, UniProt P49674); test: Inhibition of CK1epsilon (unknown origin)
[5] = target: T1, Dual specificity protein kinase CLK2 (Homo sapiens, UniProt P49760); test: Inhibition of CLK2 (unknown origin)
Target sequence in this assay (P49760 whole entry): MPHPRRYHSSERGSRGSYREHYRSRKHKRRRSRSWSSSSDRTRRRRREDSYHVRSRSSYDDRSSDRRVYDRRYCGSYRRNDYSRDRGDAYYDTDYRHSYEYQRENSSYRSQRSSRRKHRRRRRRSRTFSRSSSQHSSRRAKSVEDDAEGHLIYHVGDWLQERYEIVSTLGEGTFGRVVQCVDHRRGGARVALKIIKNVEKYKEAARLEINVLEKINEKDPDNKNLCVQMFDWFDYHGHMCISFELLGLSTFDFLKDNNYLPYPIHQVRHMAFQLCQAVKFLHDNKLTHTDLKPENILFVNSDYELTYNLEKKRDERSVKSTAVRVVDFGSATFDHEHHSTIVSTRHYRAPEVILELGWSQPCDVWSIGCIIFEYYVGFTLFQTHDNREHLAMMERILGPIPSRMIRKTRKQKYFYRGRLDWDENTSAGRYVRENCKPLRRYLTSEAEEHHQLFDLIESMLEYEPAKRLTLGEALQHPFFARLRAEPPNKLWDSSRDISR

[6] = target: Dual specificity protein kinase CLK1 (Homo sapiens, UniProt P49759); test: Inhibition of CLK1 (unknown origin)
[7] = target: T2, Dual specificity protein kinase CLK4 (Homo sapiens, UniProt Q9HAZ1); test: Inhibition of CLK4 (unknown origin)
Target sequence in this assay (Q9HAZ1 whole entry): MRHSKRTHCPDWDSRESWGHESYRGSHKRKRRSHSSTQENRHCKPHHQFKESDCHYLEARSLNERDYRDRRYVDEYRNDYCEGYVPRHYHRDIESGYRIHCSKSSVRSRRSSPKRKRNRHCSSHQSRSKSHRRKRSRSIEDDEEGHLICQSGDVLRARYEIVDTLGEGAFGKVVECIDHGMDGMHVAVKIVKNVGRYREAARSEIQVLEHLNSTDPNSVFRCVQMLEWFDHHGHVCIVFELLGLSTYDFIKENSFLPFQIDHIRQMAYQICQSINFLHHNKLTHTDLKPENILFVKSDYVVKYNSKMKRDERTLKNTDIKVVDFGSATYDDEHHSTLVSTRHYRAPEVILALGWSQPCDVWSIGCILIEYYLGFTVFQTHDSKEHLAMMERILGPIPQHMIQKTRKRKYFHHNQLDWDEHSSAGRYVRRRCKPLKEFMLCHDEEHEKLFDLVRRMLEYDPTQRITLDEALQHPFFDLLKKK

[8] = target: T3, Cyclin-dependent kinase 7 (Homo sapiens, UniProt P50613); test: Inhibition of CDK7 (unknown origin)
[9] = target: Dual specificity tyrosine-phosphorylation-regulated kinase 1A (Homo sapiens, UniProt Q13627); test: Inhibition of DYRK1A (unknown origin)
[10] = target: T2, Dual specificity protein kinase CLK4; test: Inhibition of CLK4 (unknown origin) at 10 uM relative to control
Target sequence in this assay (Q9HAZ1 whole entry, looked up): as the sequence (Q9HAZ1 whole entry) above

[11] = target: T3, Cyclin-dependent kinase 7; test: Inhibition of CDK7 (unknown origin) at 10 uM relative to control
[12] = target: Cyclin-dependent kinase 9 (Homo sapiens) (UniProt P50750); test: Inhibition of CDK9 (unknown origin) at 1 uM relative to control
[13] = target: Cyclin-dependent kinase 9 (Homo sapiens) (UniProt P50750); test: Inhibition of CDK9 (unknown origin) at 10 uM relative to control
[14] = target: T1, Dual specificity protein kinase CLK2; test: Inhibition of CLK2 (unknown origin) at 10 uM relative to control
Target sequence in this assay (P49760 whole entry, looked up): as the sequence (P49760 whole entry) above

[15] = target: T2, Dual specificity protein kinase CLK4; test: Inhibition of CLK4 (unknown origin) at 1 uM relative to control
Target sequence in this assay (Q9HAZ1 whole entry, looked up): as the sequence (Q9HAZ1 whole entry) above

[16] = target: T4, Cyclin-dependent kinase 5/CDK5 activator 1 (Homo sapiens) (UniProt Q00535+Q15078); test: Inhibition of CDK5/P25 (unknown origin) at 10 uM relative to control; type: protein-complex assay
[17] = target: T5, Cyclin-dependent kinase 2/cyclin E1 (Homo sapiens) (UniProt P24864+P24941); test: Inhibition of CDK2/Cyclin E (unknown origin) at 10 uM relative to control; type: protein-complex assay
[18] = target: T3, Cyclin-dependent kinase 7; test: Inhibition of CDK7 (unknown origin) at 1 uM relative to control
[19] = target: T1, Dual specificity protein kinase CLK2; test: Inhibition of CLK2 (unknown origin) at 1 uM relative to control
Target sequence in this assay (P49760 whole entry, looked up): as the sequence (P49760 whole entry) above

[20] = target: T4, Cyclin-dependent kinase 5/CDK5 activator 1 (Homo sapiens); test: Inhibition of CDK5/P25 (unknown origin) at 1 uM relative to control; type: protein-complex assay
[21] = target: T5, Cyclin-dependent kinase 2/cyclin E1 (Homo sapiens); test: Inhibition of CDK2/Cyclin E (unknown origin) at 1 uM relative to control; type: protein-complex assay
MDA-MB-231 [22] = test: Inhibition of cell migration human MDA-MB-231 cells assessed as migration distance at 25 uM incubated for 24 hrs by wound healing assay (reference value: 642.72 micrometer); type: functional
MDA-MB-231 [23] = test: Inhibition of cell migration human MDA-MB-231 cells assessed as migration distance at 25 uM incubated for 48 hrs by wound healing assay (reference value: 642.72 micrometer); type: functional
HUVEC = test: Antiangiogenesis activity in HUVEC cells at 125 nM incubated for 12 hrs by microscopic analysis; type: functional, cell-based; details: Homo sapiens
MDA-MB-231 [24] = test: Inhibition of cell migration human MDA-MB-231 cells at 0.01 to 0.4 uM incubated for 20 hrs by DAPI staining based analysis; type: functional; details: dose 0.01-0.4 µM
MDA-MB-231 [25] = test: Induction of ROS generation in human MDA-MB-231 cells assessed as increase in intracellular ROS level at 40 uM incubated for 48 hrs by DCFH-DA staining based fluorescence microscopic analysis (Rvb= 24.7%); type: functional
Cell membrane = test: Induction of mitochondrial membrane potential loss in human MDA-MB-231 cells assessed as increase in fluorescence intensity at 40 uM incubated for 48 hrs by TMRM dye based flow cytometry analysis (reference value: 97.5%)

T3 sequence (P50613 whole entry): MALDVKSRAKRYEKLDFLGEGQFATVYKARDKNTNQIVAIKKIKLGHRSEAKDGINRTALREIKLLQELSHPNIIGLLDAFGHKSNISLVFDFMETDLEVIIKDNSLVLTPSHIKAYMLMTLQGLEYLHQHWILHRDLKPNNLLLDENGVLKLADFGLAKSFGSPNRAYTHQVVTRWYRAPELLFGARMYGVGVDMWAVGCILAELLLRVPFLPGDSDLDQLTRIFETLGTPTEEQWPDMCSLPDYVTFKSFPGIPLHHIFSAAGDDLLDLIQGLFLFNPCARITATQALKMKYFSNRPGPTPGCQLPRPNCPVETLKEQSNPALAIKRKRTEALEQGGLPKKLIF
Chain of Casein kinase I isoform epsilon (P49674 whole entry, canonical isoform): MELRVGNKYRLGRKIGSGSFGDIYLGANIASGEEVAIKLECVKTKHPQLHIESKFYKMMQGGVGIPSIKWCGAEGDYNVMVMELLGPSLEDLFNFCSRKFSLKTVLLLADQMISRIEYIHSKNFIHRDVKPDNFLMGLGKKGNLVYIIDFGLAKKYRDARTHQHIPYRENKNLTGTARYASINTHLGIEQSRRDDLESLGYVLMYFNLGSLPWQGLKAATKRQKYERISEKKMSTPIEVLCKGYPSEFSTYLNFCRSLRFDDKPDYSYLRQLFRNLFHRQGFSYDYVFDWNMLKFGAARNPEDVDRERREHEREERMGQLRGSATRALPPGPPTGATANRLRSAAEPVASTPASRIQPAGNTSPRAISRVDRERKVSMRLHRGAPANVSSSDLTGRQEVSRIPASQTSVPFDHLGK
Chain of Dual specificity protein kinase CLK1 (P49759 whole entry): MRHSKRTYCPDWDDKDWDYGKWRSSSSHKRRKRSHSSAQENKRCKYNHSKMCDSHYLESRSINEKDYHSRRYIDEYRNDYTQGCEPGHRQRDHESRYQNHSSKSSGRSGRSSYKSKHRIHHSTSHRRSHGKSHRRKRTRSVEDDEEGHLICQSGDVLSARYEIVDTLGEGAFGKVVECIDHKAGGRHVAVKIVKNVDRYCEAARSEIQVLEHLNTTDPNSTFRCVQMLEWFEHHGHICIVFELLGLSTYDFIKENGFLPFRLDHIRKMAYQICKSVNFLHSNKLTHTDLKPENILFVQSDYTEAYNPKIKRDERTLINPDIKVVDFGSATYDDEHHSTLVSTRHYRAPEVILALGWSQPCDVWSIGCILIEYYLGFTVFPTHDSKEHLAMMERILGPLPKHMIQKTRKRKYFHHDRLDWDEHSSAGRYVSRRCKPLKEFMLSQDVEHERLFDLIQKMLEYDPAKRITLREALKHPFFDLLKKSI
T4 sequence (Q00535 whole entry): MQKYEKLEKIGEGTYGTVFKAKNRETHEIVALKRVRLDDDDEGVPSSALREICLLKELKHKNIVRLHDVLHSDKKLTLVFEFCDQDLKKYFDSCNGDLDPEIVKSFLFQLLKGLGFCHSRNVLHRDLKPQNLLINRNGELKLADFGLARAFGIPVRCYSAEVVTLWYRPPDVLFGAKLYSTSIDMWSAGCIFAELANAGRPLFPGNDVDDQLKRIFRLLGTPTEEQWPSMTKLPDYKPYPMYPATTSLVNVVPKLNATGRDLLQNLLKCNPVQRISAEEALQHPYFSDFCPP
T4 sequence (Q15078 99-307 partner limits assumed): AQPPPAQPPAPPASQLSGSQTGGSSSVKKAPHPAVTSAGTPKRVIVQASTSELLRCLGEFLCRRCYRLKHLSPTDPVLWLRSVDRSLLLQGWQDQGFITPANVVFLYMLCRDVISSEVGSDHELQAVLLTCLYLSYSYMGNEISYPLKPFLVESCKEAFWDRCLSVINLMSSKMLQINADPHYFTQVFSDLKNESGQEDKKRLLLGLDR
Chain of Cyclin-dependent kinase 9 (Homo sapiens) (P50750 whole entry): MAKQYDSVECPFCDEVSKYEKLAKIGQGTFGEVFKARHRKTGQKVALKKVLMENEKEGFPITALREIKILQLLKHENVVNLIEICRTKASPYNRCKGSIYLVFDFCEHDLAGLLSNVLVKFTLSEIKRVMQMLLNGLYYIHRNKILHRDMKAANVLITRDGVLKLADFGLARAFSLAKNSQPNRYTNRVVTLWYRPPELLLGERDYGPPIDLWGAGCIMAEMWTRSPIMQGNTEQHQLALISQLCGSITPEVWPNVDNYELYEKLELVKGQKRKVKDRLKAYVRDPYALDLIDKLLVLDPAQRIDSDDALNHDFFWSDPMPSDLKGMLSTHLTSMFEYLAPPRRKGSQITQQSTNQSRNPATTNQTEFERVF

Row | SMILES | pIC50 (K562) | pIC50 (HCT-116) | pIC50 (HT-29) | pIC50 (A549) | pIC50 (MCF7) | pIC50 (MGC-803) | pIC50 (NCI-H1299) | pIC50 (HepG2) | pIC50 (PC-3) | pIC50 [4] | pIC50 [5] | pIC50 [6] | pIC50 [7] | pIC50 [8] | pIC50 [9] | other results
1 | CC(C)n1cnc2c(NCc3cc(F)cnc3Cl)nc(N3CCC(C4CCN(CCO)CC4)CC3)nc21 | 6.54 | 6.46 | 5.62 | 6.35 | 5.22 | 5.17 | 5.56 | 5.16 | – | – | – | – | – | – | – | IC50 at 48 h [1]: 1.55 µM; pIC50 (MDA-MB-468): 5.39; pIC50 (MDA-MB-231 [2]): 6.40; IC50 at 48 h [3]: 0.46 µM
2 | CC(C)n1cnc2c(NCc3cccnc3Cl)nc(N3CCC(C4CCN(CCO)CC4)CC3)nc21 | < 4.00 | 4.26 | < 4.00 | < 4.00 | < 4.00 | < 4.00 | < 4.00 | < 4.00 | – | – | – | – | – | – | – | –
3 | CC[C@@]1(O)C(=O)OCc2c1cc1n(c2=O)Cc2cc3ccccc3nc2-1 [CAMPTOTHECIN] | 7.10 | 6.68 | 6.72 | 5.26 | 5.19 | < 4.00 | < 4.00 | – | < 4.00 | – | – | – | – | – | – | IC50 at 48 h [1]: 0.04 µM; pIC50 (MDA-MB-468): < 4.00; pIC50 (MDA-MB-231 [2]): < 4.00; IC50 at 48 h [3]: 0.81 µM
4 | CC(C)n1cnc2c(NCc3ccc(F)c(F)c3)nc(N3CCC(C4CCN(CCO)CC4)CC3)nc21 | 6.36 | 5.55 | 5.46 | 5.60 | 5.52 | 5.29 | 4.71 | 5.52 | 5.40 | 6.38 | 7.10 | 6.02 | 6.51 | 6.22 | 6.10 | –
5 | CC(C)n1cnc2c(NCc3ccncc3)nc(N3CCC(C4CCN(CCO)CC4)CC3)nc21 | 4.51 | 4.61 | 4.45 | 4.46 | 4.99 | < 4.00 | 4.41 | 4.23 | – | – | – | – | – | – | – | –
6 | CC(C)n1cnc2c(NCc3ccccc3)nc(N3CCC(C4CCN(CCO)CC4)CC3)nc21 | – | 5.65 | 5.50 | – | – | – | – | 5.74 | – | 6.11 | 7.17 | 6.39 | 6.80 | 6.84 | 6.06 | inhibition [10]: 97%; inhibition [11]: 96%; inhibition [12]: 8%; inhibition [13]: 40%; inhibition [14]: 99%; inhibition [15]: 92%; inhibition [16]: 42%; inhibition [17]: 49%; inhibition [18]: 88%; inhibition [19]: 99%; inhibition [20]: 4%; inhibition [21]: 2%
7 | CC[C@H](CO)Nc1nc(NCc2ccccc2)c2ncn(C(C)C)c2n1 [SELICICLIB] | < 4.00 | 4.76 | < 4.00 | < 4.00 | < 4.00 | < 4.00 | 4.08 | < 4.00 | < 4.00 | – | – | – | – | – | – | Activity (MDA-MB-231 [22]): 348.27 um; Activity (MDA-MB-231 [23]): 453.91 um; Activity (HUVEC): Active; inhibition (MDA-MB-231 [24]): Active; Activity (MDA-MB-231 [25]): 21.8%; Activity (Cell membrane): 87.5%
8 | OCCN1CCC(C2CCN(c3nc(NCc4cc(F)cc(F)c4)c4ncn(C5CCCC5)c4n3)CC2)CC1 | 5.60 | 4.38 | 5.47 | 5.63 | 5.53 | 5.24 | 5.19 | 5.35 | 5.36 | – | – | – | – | – | – | –
9 | OCCN1CCC(C2CCN(c3nc(NCc4ccc(Cl)c(F)c4)c4ncn(C5CCCC5)c4n3)CC2)CC1 | 5.58 | 5.53 | 5.38 | 5.45 | 5.55 | 4.70 | 5.32 | 5.76 | 5.14 | 6.71 | 7.24 | 6.11 | 6.90 | 5.69 | 6.35 | –
10 | CC(C)n1cnc2c(NCc3ccccn3)nc(N3CCC(C4CCN(CCO)CC4)CC3)nc21 | 4.54 | 4.64 | 4.27 | 4.42 | 4.35 | < 4.00 | 4.27 | 4.12 | – | 6.78 | 7.70 | 6.76 | 7.33 | 7.37 | 6.68 | –
